Data reported in patent US4921865A, “Aminoacylates of glycerol acetal” (Societe de Conseils de Recherches et d'Applications …, priority 1987, dated 1990).

How the values were obtained:
[1] = test system: platelets (PAF induced platelet aggregation); assay: inhibition of PAF-induced platelet aggregation in platelet rich plasma; format: cell-based, New Zealand rabbits; conditions: Oryctolagus cuniculus; rabbit platelet rich plasma, 2.5 nM PAF
Procedure: 1--INHIBITION OF THE PLATELETS AGGREGATION ON NEW ZEALAND RABBITS
The experimentation was conducted on platelets with plasma of New Zealand rabbits.
Blood samples were taken from auricular artery and placed in a citrate buffer (3.8 %; pH 7.4); blood was further centrifugated for 15 mn at 1200 RPM.
The tested sample was prepared in DMSO, then poured on platelets rich plasma for 1 mn, then a dose of 2.5 nM of PAF was added.
The determination is made on a Cronolog Coultronics apparatus which determines the transmission percentage corresponding to the maximum height of the peak before the desaggregation.
The percentage of variation of the inhibition with respect to the transmission percentage is calculated (control: pure DMSO).
This method was described in details in LABORATORY INVESTIGATIONS, Vol. 41, No. 3, p. 275, 1979, JEAN-PIERRE CAZENAVE, Dr. MED. , JACQUES BENVENISTE, Dr. MED., AND J. FRASER MUSTARD, M.D., "Aggregation of Rabbits Platelets by Platelet-Activating Factor Is Independent of the Release Reaction and the Arachidonate Pathway and Inhibited by Membrane-Active Drugs".
Five tests made on 5 different rabbits allowed us to calculate the IC50 of the various compounds using the linear regression test.

[2] = test system: PAF-induced [Ca^2+ ]i mobilization, washed rabbits platelets; assay: inhibition of intracytosolic free calcium mobilization induced by PAF in washed rabbit platelets; format: cell-based; conditions: PAF 2×10^-9 M; resting about 150 nM
Procedure: Blood was taken from the auricular artery of the rabbit on citric acid/sodium citrate/dextrose and anticoagulan and the washed platelets were prepared according to Ardlie et al., Brit. J. Pharmacology, 19, 7-17, 1970. They were incubated with acetylsalicylic salt (100 μM, 30 minutes) to avoid thromboxane induced aggregation. They were then loaded with the fluorescent calcium indicator dye quin 2 by incubation with quin 2 aceto-methylester (15 μM in DMSO, 20 minutes at room temperature) which penetrates the cell membrane and after hydrolysed is trapped in the platelet. Drugs were preincubated with platelets for 15 minutes simultaneously to CP/CPK mixture which destroys secreted ADP.
Fluorescent measurement was then performed (excitation λ=339 nm, emission λ=494 nm) after PAF addition to platelet suspension. The fluorescence intensity is proportional to the cytosolic free calcium level [Ca^2+ ]i which can be quantified as described by Tsien et al., J. Cell Biol., 94, 325-334, 1982.

[3] = test system: polymorphonuclear leukocytes (PMNs); assay: antagonism of polymorphonuclear leukocyte aggregation induced by PAF; format: cell-based, rat (Wistar); conditions: PAF 10^-8, rat PMNs
Procedure: Polymorphonuclear leukocytes (PMNs) were obtained as described by A. W. Ford-Hutchinson et al. (Br - J. Pharmacol. 76, 367-371, 1982). Cell suspensions ([…]) were prepared from peritoneal exudates obtained after a 5 ml IP injection of sodium caseinate 12% (w/v) to male Wistar rats, 300 g body weight.
After centrifugation, cells were washed with Hanks and resuspended in MEM/Hepes 30 mM medium (PM=7.4) at a concentration of 10^7 cells/ml. Cytochalasin B (5 μg/ml) was added 10 minutes before trigering aggregation to amplify the PMNs aggregation. The light transmittance through the cell suspension (400 μl) was measured under a 900 R/mn magnetic stirring, with a dual beam aggregometer (Chronolog Corp. Coultronics.)
The control cuvet is the cell suspension diluted to 20% of the cell count with MEM and the difference represents 100% transmittance. Change in transmittance, which occurs when PAF is added, was continuously recorded.
Drugs solubilized in MEM/Hepes were added (4 μl) to PMNs suspension 2 minutes before PAF addition.

[4] = target: T1, [^3 H]-PAF binding, platelet membrane (Oryctolagus cuniculus, UniProt G1TEI7); assay: inhibition of specific [3H]-PAF binding to rabbit platelet membranes; conditions: 1 nM [3H]-PAF, 0°C 1 h 30
T1 construct: Platelet membrane homogenate was stored at -80° C; from tissue; host or cells: rabbit platelets (membrane homogenate from lysed washed platelets)
Procedure: Synthetic tritiated [^3 H]-PAF used was in ethanol solution with a specific activity of 59.5 ci/mmols. Unlabelled PAF and lyso-PAF were solubilized in ethanol solution and stored at -80° C. The compounds were solubilized in DMSO.
Rabbit whole blood (6 volumes) was drawn from the central ear artery into 1 volume of ACD solution (citric acide 1.4 g, sodium citrate 2 5 g, Dextrose 2 g per 100 ml of H2 O) and centrifuged at 150 g for 15 minutes. The platelet-rich plasma (PRP) was carefully removed and centrifuged for 15 minutes at 1000 g. The platelet pellet was then washed 3 times: twice in Tris-HCl buffer 10 mM, pH 7.4 containing NaCl 150 mM, MgCl2 5 mM, EDTA 2 mM and the last time in the same but sodium-free buffer.
The platelet pellet was resuspended in this latter buffer, quickly frozen in liquid nitrogen and slowly thawed at room temperature for at least 3 times as described by T. Y. Shen et al. The lysed platelets were centrifuged at 100,000 g for 30 minutes in a BECKMAN model L8.55 ultra centrifuge (rotor 50.2 Ti). Platelet membrane homogenate was stored at -80° C. and used within two weeks without noticeable changes in PAF-acether binding characteristics.
Protein contain was determined by the Lowry method using bovine serum albumine as standard.
60 to 100 μg of membrane proteins were added to a final volume of 1 ml in plastic tubes containing 1 nM [^3 H]-PAF in Tris-HCl 10 mM pH 7 buffer containing 0.025 % bovine serum albumin and incubated with or without unlabelled PAF or PAF-antagonists. The incubation was carried out for 1 h 30 at 0° C. The bound [^3 H]-PAF was separated from the free [^3 H]-PAF by immediate filtration through whatman GF/C glass fiber filters under vacuum (Brandel system). The reaction and the filters were washed 3 times with 5 ml of ice-cold buffer. The filters were then placed into polyethylene phials filled up with 10 ml of liquid scintillation fluid and the radioactivity was measured by an LKB β counter with 45% efficiency.
The non specific binding was determined in the presence of 10^-6 M of unlabelled PAF. The specific binding was calculated by substracting non specific binding from the total binding. The inhibition by compounds on the specific [^3 H]-PAF binding was determined as the percent inhibition by the equation: [formula]

T1 sequence (G1TEI7 1-342): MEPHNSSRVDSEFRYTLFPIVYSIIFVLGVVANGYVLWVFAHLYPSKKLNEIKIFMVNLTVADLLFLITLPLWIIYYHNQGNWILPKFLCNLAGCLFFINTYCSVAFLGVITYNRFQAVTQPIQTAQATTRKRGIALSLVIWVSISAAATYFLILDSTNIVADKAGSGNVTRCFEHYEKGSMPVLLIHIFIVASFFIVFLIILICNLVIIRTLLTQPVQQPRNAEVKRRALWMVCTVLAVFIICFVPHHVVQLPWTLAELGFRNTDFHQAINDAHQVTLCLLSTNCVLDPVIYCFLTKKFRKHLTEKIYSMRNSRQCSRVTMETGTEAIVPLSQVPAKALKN

| Structure (SMILES) | IC50 [1] | other results |
| --- | --- | --- |
| CCCCCCCCCCCCCCCCCC1(C)OCC(COC(=O)CCC[n+]2ccsc2)O1 (stereo not drawn) [Example 3, 2-heptadecyl 2-methyl 4-[4'-(N-thiazolinium)butyryloxymethyl]1,3-dixolan chloride] | 21.5 µM |  |
| CCCCCCCCCCCCCCCCCC1OCC(COC(=O)CCC[n+]2cccc3ccccc32)O1 (stereo not drawn) [Example 5, 2-heptadecyl 4[4'-(N-quinolinium)butyryloxymethyl] 1,3 dioxalan chloride] | 3.1 µM |  |
| CCCCCCCCCCCCCCCCCC1OCC(COC(=O)CCC[n+]2ccccc2)O1 (stereo not drawn) [Example 4, 2-heptadecyl 4-[4'-(N-pyridinium)butyryloxymethyl] 1,3-dioxolan chloride] | 7 µM |  |
| CCCCCCCCCCCCCCCCOCC(COP(=O)([O-])OCC[N+](C)(C)C)OC(C)=O (stereo not drawn) [PAF, reference compound] |  | [Ca^2+ ]i level after stimulation [2]: 400 to 600 nM; aggregation of PMNs induced [3]: 55 to 70% |
| CCCCCCCCCCCCCCCCCC1(C)OCC(COC(=O)CCC[n+]2cccc3ccccc32)O1 (stereo not drawn) [Example 2, 2-heptadecyl 2-methyl 4-[4'(N-quinolinium)butyryloxymethyl]1,3-dioxolan chloride] | 1.2 µM |  |
| CCCCCCCCCC1(C)OCC(COC(=O)CCCCC[n+]2ccccc2)O1 (stereo not drawn) [Example 14, 2-nonyl 2-methyl 4-[6'-(N-pyridiniumhexanoyloxymethyl] 1,3-dioxolan bromide] | 1.46 µM | IC50 [4]: 610 nM |
| COc1cc(C2(C)OCC(COC(=O)CCC[n+]3ccccc3)O2)cc(OC)c1OC (stereo not drawn) [Example 8, 2-(3,4,5-trimethoxyphenyl) 2-methyl 4-[4'-(N-pyridinium)butyryloxymethyl] 1,3-dioxolan chloride] | 11.3 µM |  |

More lines, main results first:

| IC50 [1] | Structure (SMILES) | other results |
| --- | --- | --- |
| 5 µM | CCCCCCCCCCCCCCCCCC1(C)OCC(COC(=O)CCCC[n+]2ccccc2)O1 (stereo not drawn) [Example 7, 2-heptadecyl 2-methyl 4-[5'-(N-pyridinium)pentanoyloxymethyl]1,3-dioxolanchloride] |  |
| 31.2 µM | CCCCCCCCCCCCCCCCCC1(C)OCC(COC(=O)CCCCCCCCCC[n+]2ccccc2)O1 (stereo not drawn) [Example 12, 2-heptadecyl 2-methyl 4-[11'-(N-pyridiniumundecanoyloxymethyl) 1,3-dioxolan bromide] |  |
| 1.73 µM | CCCCCCCCCCCCCCCCCC1(CCC)OCC(COC(=O)CCCCC[n+]2ccccc2)O1 (stereo not drawn) [Example 13, 2-heptadecyl 2-(n-propyl) 4-[6'-(N-pyridinium)hexanoylmethyl] 1,3-dioxolanbromide] |  |
| 2.2 µM | CCCCCCCCCCCCCCCCCC1(C)OCC(COC(=O)CCC[n+]2ccccc2)O1 (stereo not drawn) [Example 1, 2-heptadecyl 2-methyl 4-[4'-(N-pyridinium)butyryloxymethyl]-1,3-dioxolan chloride] | IC50 [4]: 450 nM |
| 3.04 µM | CCCCCCCCCCCCCCCCCC1(CCC)OCC(COC(=O)CCC[n+]2ccccc2)O1 (stereo not drawn) [Example 6, 2-heptadecyl 2-(n-propyl 4-(4'-(N-pyridinium)butyryloxymethyl]1,3-dioxolan chloride] |  |
